Laboratory results from patent publication US20240360114A1 (SIRONAX LTD., priority 2021, published 2024).

System: HT-1080 cells
Assay: HT-1080 cell viability assay (ferroptosis induced by RSL3, Cell Titer-Glo)
Format: cell-based
Conditions: Homo sapiens, HT-1080, 20 h, ferroptosis inducer RSL3, 20 hours, ferroptosis inhibitory activity, Table 2
Method in brief: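 Cells seeded overnight, then co-treated with RSL3 and compound (3-fold, 10-point dilution, top 1.1 μM) for 20 hours. Viability by CellTiter-Glo luminescence, normalized to untreated controls; EC50 from sigmoidal non-linear regression.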

SMILES	EC50 [nM]
CC(C)C1CCN(c2ncc(NC34CC(N)(C3)C4)cn2)CC1 [Compound 434, N1-(2-(4-isopropylpiperidin-1-yl)pyrimidin-5-yl)bicyclo[1.1.1]pentane-1,3-diamine]	1000 to 10000
Cc1cc(N2CCC(C(F)(F)F)CC2)c(F)cc1NC1CCC(C(N)=O)CC1 (stereo not drawn) [Compound 435, 4-((5-fluoro-2-methyl-4-(4-(trifluoromethyl)piperidin-1-yl)phenyl)amino)cyclohexane-1-carboxamide]	0.1 to 100
CCN(CC)c1ccc(NC[C@H]2CC[C@H](N)CC2)cc1 [Compound 436]	0.1 to 100
Cc1cc(NC2CC(C(N)=O)C2)ccc1N1CCC(C(F)(F)F)CC1 (stereo not drawn) [Compound 437, 3-((3-methyl-4-(4-(trifluoromethyl)piperidin-1-yl)phenyl)amino)cyclobutane-1-carboxamide]	0.1 to 100
CC1CN(c2ccc(NC[C@H]3CC[C@H](N)CC3)cc2Cl)CC(C)O1 (stereo partly drawn) [Compound 438, N-(((1r,4r)-4-aminocyclohexyl)methyl)-3-chloro-4-(2,6-dimethylmorpholino)aniline]	0.1 to 100
CC1CN(c2c(F)cc(NC[C@H]3CC[C@H](N)CC3)cc2F)CC(C)O1 (stereo partly drawn) [Compound 439, N-(((1r,4r)-4-aminocyclohexyl)methyl)-4-(2,6-dimethylmorpholino)-3,5-difluoroaniline]	100 to 1000
CC1CN(c2ccc(NC3CCCCC3N)cc2)CC(C)O1 (stereo not drawn) [Compound 440, N1-(4-(2,6-dimethylmorpholino)phenyl)cyclohexane-1,2-diamine]	100 to 1000
CC1CN(c2ccc(NC3CCCCC3N)c(F)c2)CC(C)O1 (stereo not drawn) [Compound 441, N1-(4-(2,6-dimethylmorpholino)-2-fluorophenyl)cyclohexane-1,2-diamine]	100 to 1000
Cc1cc(N2CC(C)OC(C)C2)ccc1NC1CCCCC1N (stereo not drawn) [Compound 442, N1-(4-(2,6-dimethylmorpholino)-2-methylphenyl)cyclohexane-1,2-diamine]	100 to 1000
Cc1nc(N2CC(C)OC(C)C2)ccc1NC1CCC(N)CC1 (stereo not drawn) [Compound 443, N1-(6-(2,6-dimethylmorpholino)-2-methylpyridin-3-yl)cyclohexane-1,4-diamine]	100 to 1000
N[C@@H]1CCC[C@H]1Nc1ccc(N2CCC(C(F)(F)F)CC2)cc1 [Compound 444, (1R,2R)-N1-(4-(4-(trifluoromethyl)piperidin-1-yl)phenyl)cyclopentane-1,2-diamine]	0.1 to 100
CC1(C)CN(c2ccc(NC[C@H]3CC[C@H](N)CC3)cc2)CC(C)(C)O1 [Compound 445, N-(((1r,4r)-4-aminocyclohexyl)methyl)-4-(2,2,6,6-tetramethylmorpholino)aniline]	0.1 to 100
Cc1cc(N2CCC(C(F)(F)F)CC2)ccc1NCCCC[C@H]1CC[C@H](N)CC1 [Compound 447, N-(4-((1r,4s)-4-aminocyclohexyl)butyl)-2-methyl-4-(4-(trifluoromethyl)piperidin-1-yl)aniline]	0.1 to 100
CC(C)C1CCN(c2ncc(NC[C@H]3C[C@H](N)C3)cn2)CC1 [Compound 448, N-(((1r,3r)-3-aminocyclobutyl)methyl)-2-(4-isopropylpiperidin-1-yl)pyrimidin-5-amine]	0.1 to 100
NC1CCC(CNc2ccc(N3CCS(=O)(=O)CC3)cc2)CC1 (stereo not drawn) [Compound 449, 4-(4-(((4-aminocyclohexyl)methyl)amino)phenyl) thiomorpholine 1,1-dioxide]	1000 to 10000
CC1CN(c2ccc(NC3CCC(N)CC3)cc2)CC(C)O1 (stereo not drawn) [Compound 450, N1-(4-(2,6-dimethylmorpholino)phenyl)cyclohexane-1,4-diamine]	100 to 1000
Cc1cc(NC[C@H]2CC[C@H](N)CC2)cc(C)c1N1CC(C)OC(C)C1 (stereo partly drawn) [Compound 451, (((1r,4r)-4-aminocyclohexyl)methyl)-4-(2,6-dimethylmorpholino)-3,5-dimethylaniline]	0.1 to 100
Cc1c(NC[C@H]2CC[C@H](N)CC2)ccc(N2CC(C)OC(C)C2)c1C (stereo partly drawn) [Compound 452, N-(((1r,4r)-4-aminocyclohexyl)methyl)-4-(2,6-dimethylmorpholino)-2,3-dimethylaniline]	0.1 to 100
Cc1cc(N2CC(C)OC(C)C2)c(C)cc1NC[C@H]1CC[C@H](N)CC1 (stereo partly drawn) [Compound 453, N-(((1r,4r)-4-aminocyclohexyl)methyl)-4-(2,6-dimethylmorpholino)-2,5-dimethylaniline]	0.1 to 100
N[C@H]1CCC[C@H]1Nc1ccc(N2CCC(C(F)(F)F)CC2)cc1 [Compound 454, (1R, 2S)-N1-(4-(4-(trifluoromethyl)piperidin-1-yl)phenyl)cyclopentane-1.2-diamine]	0.1 to 100
CC1CN(c2ccc(NC3CCC(N)CC3)cc2F)CC(C)O1 (stereo not drawn) [Compound 456, N1-(4-(2,6-dimethylmorpholino)-3-fluorophenyl)cyclohexane-1,4-diamine]	100 to 1000

SMILES	EC50 [nM]
CC1CN(c2ccc(NC3CC4(CC(N)C4)C3)cc2F)CC(C)O1 (stereo not drawn) [Compound 457, N2-(4-(2,6-dimethylmorpholino)-3-fluorophenyl)spiro[3.3]heptane-2,6-diamine]	100 to 1000
CC1CN(c2ccc(NC3CCC(C)(N)CC3)cc2F)CC(C)O1 (stereo not drawn) [Compound 458, N1-(4-(2,6-dimethylmorpholino)-3-fluorophenyl)-4-methylcyclohexane-1,4-diamine]	100 to 1000
COC1(C(F)(F)F)CCN(c2ccc(NC[C@H]3CC[C@H](N)CC3)cc2)CC1 [Compound 459, N-(((1r,4r)-4-aminocyclohexyl)methyl)-4-(4-methoxy-4-(trifluoromethyl)piperidin-1-yl)aniline]	0.1 to 100
CC1CN(c2ccc(NC3C[C@H]4CC(N)C[C@H]4C3)cc2F)CC(C)O1 (stereo partly drawn) [Compound 460, (3aR, 6aS)-N2-(4-(2,6-dimethylmorpholino)-3-fluorophenyl) octahydropentalene-2,5-diamine]	0.1 to 100
CC1CN(c2ccc(NC3CC4(CC(N)C4)C3)c(F)c2)CC(C)O1 (stereo not drawn) [Compound 461, N2-(4-(2,6-dimethylmorpholino)-2-fluorophenyl)spiro[3.3]heptane-2,6-diamine]	0.1 to 100
CC1CN(c2ccc(NC3CC(N)C3)c(F)c2)CC(C)O1 (stereo not drawn) [Compound 462, N1-(4-(2,6-dimethylmorpholino)-2-fluorophenyl)cyclobutane-1,3-diamine]	1000 to 10000
Cc1cc(N2CC(C)OC(C)C2)ccc1NC1CC2(CC(N)C2)C1 (stereo not drawn) [Compound 463, N2-(4-(2,6-dimethylmorpholino)-2-methylphenyl)spiro[3.3]heptane-2,6-diamine]	0.1 to 100
Cc1cc(NC[C@H]2CC[C@H](N)CC2)cc(F)c1N1CC(C)OC(C)C1 (stereo partly drawn) [Compound 464, N-(((1r,4r)-4-aminocyclohexyl)methyl)-4-(2,6-dimethylmorpholino)-3-fluoro-5-methylaniline]	0.1 to 100
Cc1cc(N2CCCOCC2)ccc1NC1CC2(CC(N)C2)C1 (stereo not drawn) [Compound 465, N2-(2-methyl-4-(1,4-oxazepan-4-yl)phenyl)spiro[3.3]heptane-2,6-diamine]	0.1 to 100
CC1CN(c2ccc(NC[C@H]3CC[C@H](N)CC3)c(C(F)(F)F)c2)CC(C)O1 (stereo partly drawn) [Compound 466, N-(((1r,4r)-4-aminocyclohexyl)methyl)-4-(2,6-dimethylmorpholino)-2-(trifluoromethyl)aniline]	100 to 1000
CC1CN(c2ccc(NC[C@H]3CC[C@H](N)CC3)cc2)CC(C)N1CC(F)(F)F (stereo partly drawn) [Compound 467, N-(((1r,4r)-4-aminocyclohexyl)methyl)-4-(3,5-dimethyl-4-(2,2,2-trifluoroethyl)piperazin-1-yl)aniline]	0.1 to 100
CC1CN(c2ccc(NC[C@H]3CC[C@H](N)CC3)cc2C#N)CC(C)O1 (stereo partly drawn) [Compound 468, 5-((((1r,4r)-4-aminocyclohexyl)methyl)amino)-2-(2,6-dimethylmorpholino)-benzonitrile]	0.1 to 100
Cc1c(N2CC(C)OC(C)C2)ccc(NC[C@H]2CC[C@H](N)CC2)c1F (stereo partly drawn) [Compound 469, N-(((1r,4r)-4-aminocyclohexyl)methyl)-4-(2,6-dimethylmorpholino)-2-fluoro-3-methylaniline]	100 to 1000
CCOCCOC1CCN(c2ccc(NC3CC4(CC(N)C4)C3)c(C)c2)CC1 (stereo not drawn) [Compound 470, N2-(4-(4-(2-ethoxyethoxy)piperidin-1-yl)-2-methylphenyl)spiro[3.3]heptane-2,6-diamine]	0.1 to 100
CCOC1CCN(c2ccc(NC3CC4(CC(N)C4)C3)c(C)c2)CC1 (stereo not drawn) [Compound 471, N2-(4-(4-ethoxypiperidin-1-yl)-2-methylphenyl)spiro[3.3]heptane-2,6-diamine]	0.1 to 100
N[C@H]1CC[C@H](CNc2ccc(N3CC4CCC(C3)O4)c(F)c2)CC1 [Compound 472, N-(((1r,4r)-4-aminocyclohexyl)methyl)-4-(8-oxa-3-azabicyclo[3.2.1]octan-3-yl)-3-fluoroaniline]	0.1 to 100
COCCOc1cc(NC2CCC(N)CC2)ccc1N1CCC(C(F)(F)F)CC1 (stereo not drawn) [Compound 473, N1-(3-(2-methoxyethoxy)-4-(4-(trifluoromethyl)piperidin-1-yl)phenyl)cyclohexane-1,4-diamine]	0.1 to 100
Cc1nc(N2CC(C)OC(C)C2)ccc1NC1C2CC3CC1CC(N)(C3)C2 (stereo not drawn) [Compound 474A, N^4-(6-(2.6-dimethylmorpholino)-2-methylpyridin-3-yl)adamantane-1,4-diamine]	0.1 to 100
Cc1nc(N2CC(C)OC(C)C2)ccc1NC1C2CC3CC1CC(CN)(C3)C2 (stereo not drawn) [Compound 475A, N-(5-(aminomethyl)adamantan-2-yl)-6-(2,6-dimethylmorpholino)-2-methylpyridin-3-amine]	0.1 to 100
Cc1cc(NC2CC3(CC(N)C3)C2)c(C)nc1N1CC(C)OC(C)C1 (stereo not drawn) [Compound 476, N2-(6-(2,6-dimethylmorpholino)-2,5-dimethylpyridin-3-yl)spiro[3.3]heptane-2,6-diamine]	0.1 to 100
CC1CN(c2ccc(NC3CC4(CC(N)C4)C3)cn2)CC(C)O1 (stereo not drawn) [Compound 477, N2-(6-(2,6-dimethylmorpholino)pyridin-3-yl)spiro[3.3]heptane-2,6-diamine]	100 to 1000
